This is an account of results in patent US12486229B2, “Indole derivative and application thereof” (SHANGHAI MEDICILON INC., priority 2020, dated 2025).

The assay deals with TNBS induced ulcerative colitis in rats. Nature of the assay: TNBS induced ulcerative colitis in rats. It counts as in vivo, rat. Conditions: for Colon length / Colon weight / Colon weight/colon length / Ulcer area: 3 mg/kg oral gavage once a day for 7 days, day 8; for General anatomical view of colon, from excellent to poor: 7 days administration, SASP 360, Example 3 and Etrasimod 3, Ozanimod 10 mg/kg; for Weight: 3 mg/kg oral gavage once a day; for Drug efficacy intensity (colon weight): oral gavage for 7 consecutive days, doses as given in ranking. As to the method: Preparation of molding agent: 5 mL TNBS and 8.953 mL anhydrous ethanol and 26.741 sterilized water for injection. • TNBS comes from Dalian Meilun Biotechnology Co., Ltd. • Source of SPF male SD rats: Shanghai Slake Experimental Animal Co., Ltd. • Animal age at the beginning of the experiment: 8 to 10 weeks; • Animal weight at the beginning of the experiment: about 250 g; • Adaptation time: 5 to 7 days; • Animals were fasted (only water) for 24 hours. After inhalation anesthesia with isoflurane, all rats were perfused with 0.5 mL TNBS ethanol solution per rat (18 mg TNBS/rat) via rectum with latex hose, with the length of the hose entering the rectum of about 8 cm. After withdrawing the hose, the rats remained under isoflurane anesthesia, and kept in the inclined state of hip elevation for 15 minutes.
The rats after modeling were randomly divided into 5 groups: model group, positive control group using drug sulfasalazine (SASP, 360 mg/kg), test substance group using the compound of Example 3 (3 mg/kg), test substance group using Etrasimod (3 mg/kg), test substance group using Ozanimod (10 mg/kg).
At 3 hours after modeling, the animals in each group were administrated with medicine solution by oral gavage (Table 1), 5 mL/kg body weight (10 mL/kg in sulfasalazine group), once a day, for 7 consecutive days, and the feces of the animals and whether there is death were observed every day. On the 8th day, the animals were killed under CO2 overdose anesthesia followed by being dissected, the entire colon tissue was extracted, the contents of the colon were cleaned after longitudinal dissection along the mesenteric side, the colon was weighed and measured for its length, the area of the ulcer was measured, and the general situation was observed and photos were taken. Finally, the colon was fixed in 10% formalin, and H&E staining and histopathological analysis (inflammation, goblet cells, lesion depth, ulcer degree, crypt abscess) were performed.
Wherein, the compound of Example 3 of the invention, purity: 99.74%. • Etrasimod, prepared according to the literature method (the second isomer of Example 1.29 in WO2010/011316A1), purity: 98.47%. • Ozanimod, prepared according to the literature method (compound 86 in WO2011/060392A1), purity: 99.78%. • Sulfasalazine enteric-coated tablets, produced by Shanghai Fuda Pharmaceutical Co., Ltd., 0.25 g/tablet. Enteric coated tablets show yellow to brownish yellow after the coating is removed. • Solutol: Beijing Fengli Jingqiu Pharmaceutical Co., Ltd. • Solvent preparation: • DMSO, Solutol and 0.9% sodium chloride solution were mixed according to the volume ratio of 5:10:85 to prepare the solvent.
Preparation of compound of Example 3 and Etrasimod solution: 27 mg of test substances were taken respectively and dissolved in 45 mL of solvent to obtain corresponding test substance solution.
Ozanimod: 90 mg Ozanimod was dissolved in 45 mL solvent to obtain Ozanimod solution.
Preparation of SASP solution: six sulfasalazine enteric-coated tablets after grinding were added to 41.7 mL 0.5% CMC-Na, and then dissolved by ultrasonic to obtain SASP solution.
Due to the excipient factor of SASP drug preparation, the concentration should not be too high when suspended in 0.5% CMC-Na, otherwise the suspension was uneven and the mobility was poor, so the dose volume of SASP was doubled compared with the compound of Example 3 and Etrasimod.

Turning to `O=C(O)CCn1ccc2cc(OCc3ccc(C4CCCC4)c(C(F)(F)F)c3)cc(Cl)c21` [Compound of Example 3, 3-(7-chlorine-5-((4-cyclopentyl-3-(trifluoromethyl)benzyl)oxy)-1H-indole-1-yl)propionic acid], the Colon length turned out to be 13.66 ± 0.63 cm, the Colon weight worked out at 2.07 ± 0.17 g, the Colon weight/colon length is given as 0.15 g/cm and the Ulcer area came out at 53.87 ± 24.01 mm^2. In addition, the “General anatomical view of colon, from excellent to poor” value is “group using compound of Example 3>group using sulfasalazine>group using Etrasimod>group using Ozanimod” and the “Drug efficacy intensity (colon weight)” value was “group using the compound of Example 3 (3 mg/kg)>group using Etrasimod (3 mg/kg)>group using sulfasalazine (360 mg/kg)>model group>group using Ozanimod (10 mg/kg)”. Further, for the setting “Day 1”, the Weight amounted to 247 ± 0.55 g. In addition, the Weight (Day 2) was 224.6 ± 0.51 g. Where the note is “Day 3”, the Weight came out at 226.3 ± 0.85 g. Moreover, the Weight (Day 4) came out at 233.6 ± 1.45 g. Where the note is “Day 5”, the Weight was 238.5 ± 1.57 g. The same molecule displayed a Weight (Day 6) of 245 ± 1.74 g. The Weight (Day 7) amounted to 258.8 ± 1.61 g. Moreover, the Weight (Day 8) amounted to 267.9 ± 1.44 g. For the same molecule, the “Weight course compared with model group” value (SASP 360 mg/kg, Example 3 and Etrasimod 3 mg/kg, oral once a day) was “a certain tendency to inhibit the weight loss”.

In turn, `O=C(O)C[C@H]1CCc2c1[nH]c1ccc(OCc3ccc(C4CCCC4)c(C(F)(F)F)c3)cc21` [Etrasimod, reference compound] gave a Colon length of 13.56 ± 0.54 cm, a Colon weight of 2.54 ± 0.25 g, a Colon weight/colon length of 0.19 g/cm and a Ulcer area of 177.97 ± 56.5 mm^2. The “General anatomical view of colon, from excellent to poor” value is on record as “group using compound of Example 3>group using sulfasalazine>group using Etrasimod>group using Ozanimod” and the “Drug efficacy intensity (colon weight)” value is on record as “group using the compound of Example 3 (3 mg/kg)>group using Etrasimod (3 mg/kg)>group using sulfasalazine (360 mg/kg)>model group>group using Ozanimod (10 mg/kg)”. The Weight (Day 1) is 251.6 ± 0.5 g. Moreover, the Weight (Day 2) is on record as 225.5 ± 0.56 g. Where the note is “Day 3”, this molecule gave a Weight of 223.9 ± 0.94 g. Also, the Weight (Day 4) came to 221.8 ± 1.51 g. Further, the Weight (Day 5) stood at 224.4 ± 1.73 g. Besides, under “Day 6”, the Weight is on record as 230.1 ± 2.04 g. The molecule further displayed a Weight (Day 7) of 245.5 ± 1.85 g. Also, the Weight (Day 8) came to 255.8 ± 1.6 g.
